Test results from PMC7044277 (Nature Communications, 2020).
Where “and” joins values, the source holds several entries; their conditions need not be identical. Identical values can stand only once.

Tests used:
Type in all cases: cell-based
Set-up in all cases: GPCRome screening signal at PTGIR / GPCRome screening signal at PTH1R / GPCRome screening signal at PTH2R / GPCRome screening signal at QRFP / GPCRome screening signal at RXFP2 / GPCRome screening signal at RXFP3 / GPCRome screening signal at RXFP4 / GPCRome screening signal at S1PR2 / GPCRome screening signal at S1PR3 / GPCRome screening signal at S1PR4 / GPCRome screening signal at S1PR5 / GPCRome screening signal at SCTR / GPCRome screening signal at SSTR2 / GPCRome screening signal at SSSTR / GPCRome screening signal at SSTR4 / GPCRome screening signal at SSTR5 / GPCRome screening signal at SUCNR1 / GPCRome screening signal at TA1 / GPCRome screening signal at TAAR2 / GPCRome screening signal at TAAR5 / GPCRome screening signal at TAAR6 / GPCRome screening signal at TAAR8 / GPCRome screening signal at TACR1 / GPCRome screening signal at TACR2 / GPCRome screening signal at TACR3 / GPCRome screening signal at TBXA2R / GPCRome screening signal at TSHR / GPCRome screening signal at UTS2R / GPCRome screening signal at VIPR2 / GPCRome screening signal at GPR68 no V2 Tail / GPCRome screening signal at GRM2 / GPCRome screening signal at GRM3: reference not given here
320 non-olfactory GPCRs [1] = target: T1, 320 non-olfactory GPCRs (Homo sapiens, UniProt Q14416); conditions: receptor GRM2
T1 construct: expressed in transfected cells; host or cells: HTLA cells

320 non-olfactory GPCRs [2] = target: T2, 320 non-olfactory GPCRs (Homo sapiens, UniProt O14804); conditions: receptor TAAR5
T2 construct: expressed in transfected cells; host or cells: HTLA cells

320 non-olfactory GPCRs [3] = target: T3, 320 non-olfactory GPCRs (Homo sapiens, UniProt P49190); conditions: receptor PTH2R
T3 construct: expressed in transfected cells; host or cells: HTLA cells

320 non-olfactory GPCRs [4] = target: T4, 320 non-olfactory GPCRs (Homo sapiens, UniProt P29371); conditions: receptor TACR3
T4 construct: expressed in transfected cells; host or cells: HTLA cells

[5] = Fig_5f, single replicate values
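Wherever GPCRome agonism screen response is given: fold over basal response of each receptor without drug.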

T2 sequence (O14804 whole entry): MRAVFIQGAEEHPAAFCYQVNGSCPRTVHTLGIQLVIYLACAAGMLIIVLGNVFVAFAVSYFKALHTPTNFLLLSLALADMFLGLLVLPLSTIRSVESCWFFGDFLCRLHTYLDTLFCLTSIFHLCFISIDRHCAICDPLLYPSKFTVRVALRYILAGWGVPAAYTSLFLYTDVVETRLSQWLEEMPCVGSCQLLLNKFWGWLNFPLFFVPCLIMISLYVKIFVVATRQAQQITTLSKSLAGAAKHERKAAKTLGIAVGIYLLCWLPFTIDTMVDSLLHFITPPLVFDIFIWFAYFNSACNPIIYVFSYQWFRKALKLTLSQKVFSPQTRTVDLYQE
T3 sequence (P49190 25-550): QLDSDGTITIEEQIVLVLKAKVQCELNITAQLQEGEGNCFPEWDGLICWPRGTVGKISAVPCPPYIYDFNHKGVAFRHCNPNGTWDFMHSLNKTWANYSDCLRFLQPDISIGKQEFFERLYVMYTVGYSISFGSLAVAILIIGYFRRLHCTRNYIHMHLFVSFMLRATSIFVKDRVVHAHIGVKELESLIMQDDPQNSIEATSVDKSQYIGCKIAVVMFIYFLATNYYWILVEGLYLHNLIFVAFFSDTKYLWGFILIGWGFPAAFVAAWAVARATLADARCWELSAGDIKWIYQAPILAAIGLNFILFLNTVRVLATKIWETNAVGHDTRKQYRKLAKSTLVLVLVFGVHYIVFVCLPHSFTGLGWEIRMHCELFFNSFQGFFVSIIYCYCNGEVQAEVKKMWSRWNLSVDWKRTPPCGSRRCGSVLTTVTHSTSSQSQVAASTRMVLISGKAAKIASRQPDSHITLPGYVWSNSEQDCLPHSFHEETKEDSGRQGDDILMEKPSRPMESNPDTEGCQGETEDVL
T1 sequence (Q14416 19-872): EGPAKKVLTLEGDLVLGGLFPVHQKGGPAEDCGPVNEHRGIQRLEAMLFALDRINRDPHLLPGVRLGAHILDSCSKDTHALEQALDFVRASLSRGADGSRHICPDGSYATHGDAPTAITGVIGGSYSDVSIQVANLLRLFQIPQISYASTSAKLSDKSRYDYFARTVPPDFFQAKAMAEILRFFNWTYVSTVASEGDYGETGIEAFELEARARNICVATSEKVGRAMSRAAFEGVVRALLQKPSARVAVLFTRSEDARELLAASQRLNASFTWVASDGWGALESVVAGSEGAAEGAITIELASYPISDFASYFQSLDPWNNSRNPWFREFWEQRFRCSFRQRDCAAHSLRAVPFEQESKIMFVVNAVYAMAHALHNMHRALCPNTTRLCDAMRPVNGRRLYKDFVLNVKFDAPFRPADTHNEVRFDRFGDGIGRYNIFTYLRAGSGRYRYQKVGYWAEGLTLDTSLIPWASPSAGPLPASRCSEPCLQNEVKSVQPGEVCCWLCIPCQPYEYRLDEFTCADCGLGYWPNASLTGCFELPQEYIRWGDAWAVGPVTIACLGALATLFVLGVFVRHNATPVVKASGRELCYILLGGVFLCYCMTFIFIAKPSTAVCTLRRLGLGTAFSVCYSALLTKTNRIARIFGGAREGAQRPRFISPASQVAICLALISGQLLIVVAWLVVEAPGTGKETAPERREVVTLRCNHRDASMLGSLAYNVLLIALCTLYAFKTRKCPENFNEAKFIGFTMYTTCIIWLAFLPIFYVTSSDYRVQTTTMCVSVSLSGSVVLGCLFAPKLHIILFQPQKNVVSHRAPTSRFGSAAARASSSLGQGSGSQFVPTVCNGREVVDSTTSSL
T4 sequence (P29371 whole entry): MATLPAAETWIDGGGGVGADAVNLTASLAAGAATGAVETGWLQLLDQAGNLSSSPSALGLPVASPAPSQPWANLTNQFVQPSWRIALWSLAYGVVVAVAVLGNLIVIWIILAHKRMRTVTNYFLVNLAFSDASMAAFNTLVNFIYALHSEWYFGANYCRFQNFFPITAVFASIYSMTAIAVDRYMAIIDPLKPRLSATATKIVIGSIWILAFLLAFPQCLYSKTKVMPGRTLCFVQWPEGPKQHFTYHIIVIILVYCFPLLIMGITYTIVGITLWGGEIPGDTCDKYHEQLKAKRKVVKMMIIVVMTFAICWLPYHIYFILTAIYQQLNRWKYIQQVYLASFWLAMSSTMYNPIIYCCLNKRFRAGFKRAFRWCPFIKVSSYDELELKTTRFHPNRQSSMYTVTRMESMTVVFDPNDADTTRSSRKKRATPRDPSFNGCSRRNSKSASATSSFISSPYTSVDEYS

| Structure (SMILES) | GPCRome screening signal at GRM2 (320 non-olfactory GPCRs [1]; [5]) | GPCRome screening signal at TAAR5 (320 non-olfactory GPCRs [2]; [5]) | GPCRome screening signal at PTH2R (320 non-olfactory GPCRs [3]; [5]) | GPCRome screening signal at TACR3 (320 non-olfactory GPCRs [4]; [5]) | GPCRome agonism screen response (320 non-olfactory GPCRs [1]; replicate values, Fig_4g) | GPCRome agonism screen response (320 non-olfactory GPCRs [2]; replicate values, Fig_4g) | GPCRome agonism screen response (320 non-olfactory GPCRs [3]; replicate values, Fig_4g) | GPCRome agonism screen response (320 non-olfactory GPCRs [4]; replicate values, Fig_4g) |
| --- | --- | --- | --- | --- | --- | --- | --- | --- |
| CCOc1ccccc1CCC(C)NCC1(O)CCCCC1.Cl (racemic) [Fig_5f] | 0.9548 and 1.3016 and 1.1 and 0.9506 | 1.144 and 1.4451 and 1.369 and 1.654 | 0.8447 and 0.9374 and 0.7725 and 1.472 | 1.15 and 1.023 and 1.051 and 0.8328 | – | – | – | – |
| CCOc1cccc2cc(C(C)NCC3(O)CCCCC3)oc12 (centres unmarked) [O4LE6] | – | – | – | – | 1.717 and 0.9934 and 0.846 and 0.4952 | 1.083 and 1.815 and 1.566 and 2.161 | 1.171 and 0.1179 and 1.638 and 1.06 | 1.119 and 1.001 and 1.104 and 0.992 |
